Laboratory results reported in publication PMC8400806, “Discovery of Amide-Functionalized Benzimidazolium Salts as Potent α-Glucosidase Inhibitors” (Molecules, 2021).
“Also recorded” adds a separate entry of the source. Counter-ions that a name gives are not always drawn. Like-named read-outs stand apart in the source and are kept apart here.

Tests used:
[1] = molecular target: T1, α-glucosidase enzyme (Saccharomyces cerevisiae, UniProt P53341); test: biochemical; type: biochemical; conditions: for α-glucosidase inhibitory activity, in words: verbal rating in the SAR discussion
T1 construct: purchased Sigma-Aldrich, Munich, Germany
Method: The solution of the α-glucosidase enzyme (obtained from Saccharomyces cerevisiae (Sigma-Aldrich, Munich, Germany)) was prepared in phosphate buffer (pH 6.8, 100 mM). The synthesized compounds were dissolved in dimethyl sulfoxide (DMSO). […] Afterwards, 40 μL of 5 mM p-nitrophenyl-α-D-glucopyranoside (Sigma-Aldrich, Munich, Germany) was poured into each well and further incubated for an additional half-hour. […] Acarbose (Sigma-Aldrich, Munich, Germany) and DMSO were used as reference inhibitors and negative control, respectively. The tests were conducted in triplicate and percent inhibitions were calculated using the following formula: % Inhibition = [(A control − A sample)/A control] × 100 where ‘A’ stands for absorbance.
The IC50 values of the synthesized compounds and acarbose were also determined.

T1 sequence (P53341 whole entry): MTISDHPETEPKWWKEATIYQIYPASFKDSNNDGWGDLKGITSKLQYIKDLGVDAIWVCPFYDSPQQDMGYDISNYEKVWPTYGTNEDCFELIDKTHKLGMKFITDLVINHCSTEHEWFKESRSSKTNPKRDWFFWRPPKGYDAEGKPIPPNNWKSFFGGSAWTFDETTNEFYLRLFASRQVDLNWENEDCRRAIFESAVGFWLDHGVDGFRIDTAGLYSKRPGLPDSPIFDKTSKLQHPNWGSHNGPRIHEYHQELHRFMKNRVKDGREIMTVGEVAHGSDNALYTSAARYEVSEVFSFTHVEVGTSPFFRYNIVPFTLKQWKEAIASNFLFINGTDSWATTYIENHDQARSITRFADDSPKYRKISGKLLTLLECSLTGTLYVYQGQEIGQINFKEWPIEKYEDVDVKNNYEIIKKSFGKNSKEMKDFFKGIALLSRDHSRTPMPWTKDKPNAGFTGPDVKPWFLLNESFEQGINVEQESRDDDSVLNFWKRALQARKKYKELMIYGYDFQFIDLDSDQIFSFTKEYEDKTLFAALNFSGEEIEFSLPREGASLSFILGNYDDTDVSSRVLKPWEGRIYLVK

| IC50 [1] | melting point | SMILES | α-glucosidase inhibitory activity, in words [1] | IC50 ([1]; S. cerevisiae enzyme 0.5 U/mL, phosphate buffer pH 6.8, 37 °C, triplicate, read-out: IC50 α-glucosidase inhibition) | α-glucosidase inhibitory potential, fold higher than the standard drug acarbose ([1]; from IC50 values versus acarbose) |
| --- | --- | --- | --- | --- | --- |
| 25 ± 0.011 µM | 244 to 246 °C | COc1ccccc1NC(=O)C[n+]1c(C)n(Cc2ccccc2)c2ccccc21.[Br-] [Compound 10l, 1-Benzyl-3-[2-{(2-methoxyphenyl)amino}-2-oxoethyl]-2-methyl-1H-benzo[d]imidazol-3-ium bromide] |  |  |  |
| 60 ± 0.041 µM | 178 to 180 °C | Cc1n(Cc2ccccc2)c2ccccc2[n+]1CC(=O)Nc1ccc(Cl)cc1.[Br-] [Compound 10b, 1-Benzyl-3-[2-{(4-chlorophenyl)amino}-2-oxoethyl]-2-methyl-1H-benzo[d]imidazol-3-ium bromide] |  |  |  |
| 22 ± 0.04 µM | 210 to 213 °C | Cc1n(Cc2ccccc2)c2ccccc2[n+]1CC(=O)Nc1cccc(Cl)c1.[Br-] [Compound 10a, 1-Benzyl-3-[2-{(3-chlorophenyl)amino}-2-oxoethyl]-2-methyl-1H-benzo[d]imidazol-3-ium bromide] |  |  |  |
| 16.16 ± 0.026 µM | 235 to 238 °C | COc1ccc(NC(=O)C[n+]2c(C)n(Cc3ccccc3)c3ccccc32)cc1.[Br-] [Compound 10m, 1-Benzyl-3-[2-{(4-methoxyphenyl)amino}-2-oxoethyl]-2-methyl-1H-benzo[d]imidazole-3-ium bromide] |  |  |  |

The next lines start with the compound.

| SMILES | IC50 [1] | melting point | α-glucosidase inhibitory activity, in words [1] | IC50 ([1]; S. cerevisiae enzyme 0.5 U/mL, phosphate buffer pH 6.8, 37 °C, triplicate, read-out: IC50 α-glucosidase inhibition) | α-glucosidase inhibitory potential, fold higher than the standard drug acarbose ([1]; from IC50 values versus acarbose) |
| --- | --- | --- | --- | --- | --- |
| O=C(C[n+]1cn(Cc2ccccc2)c2ccccc21)Nc1cccc([N+](=O)[O-])c1.[Br-] [Compound 9g, 1-Benzyl-3-[2-{(3-nitrophenyl)amino}-2-oxoethyl]-1H-benzo[d]imidazol-3-ium bromide] | 215.73 ± 0.112 µM | 162 to 163 °C |  |  |  |
| Cc1n(Cc2ccccc2)c2ccccc2[n+]1CC(=O)Nc1cccc([N+](=O)[O-])c1.[Br-] [Compound 10g, 1-Benzyl-2-methyl-3-[2-{(3-nitrophenyl)amino}-2-oxoethyl]-1H-benzo[d]imidazol-3-ium bromide] | 19 ± 0.086 µM | 180 to 182 °C | promising α-glucosidase inhibitory results |  |  |
| Cc1cccc(NC(=O)C[n+]2cn(Cc3ccccc3)c3ccccc32)c1.[Br-] [Compound 9j, 1-Benzyl-3-{2-oxo-2-(m-tolylamino)ethyl}-1H-benzo[d]imidazol-3-ium bromide] | 200.14 ± 0.039 µM | 132 to 134 °C |  |  |  |
| O=C(C[n+]1cn(Cc2ccccc2)c2ccccc21)Nc1cccc(Br)c1.[Br-] [Compound 9d, 1-Benzyl-3-[2-{(3-bromophenyl)amino}-2-oxoethyl]-1H-benzo[d]imidazol-3-ium bromide] | 171.11 ± 0.089 µM | 176 to 178 °C |  |  |  |
| Cc1cccc(NC(=O)C[n+]2c(C)n(Cc3ccccc3)c3ccccc32)c1.[Br-] [Compound 10j, 1-Benzyl-2-methyl-3-{2-oxo-2-(m-tolylamino)ethyl}-1H-benzo[d]imidazol-3-ium bromide] | 60 ± 0.041 µM | 192 to 194 °C | poor inhibitors |  |  |
| O=C(C[n+]1cn(Cc2ccccc2)c2ccccc21)Nc1ccc(Cl)cc1.[Br-] [Compound 9b, 1-Benzyl-3-[2-{(4-chlorophenyl)amino}-2-oxoethyl]-1H-benzo[d]imidazol-3-ium bromide] | 169.16 ± 0.023 µM | 197 to 198 °C |  |  |  |
| O=C(C[n+]1cn(Cc2ccccc2)c2ccccc21)Nc1ccc(Br)cc1 [Compound 9e, 1-Benzyl-3-[2-{(4-bromophenyl)amino)}-2-oxoethyl]-1H-benzo[d]imidazol-3-ium bromide] |  |  |  | 198 ± 0.103 µM |  |
| Cc1n(Cc2ccccc2)c2ccccc2[n+]1CC(=O)Nc1ccccc1Br (as salt: bromide) [Compound 10c, 1-Benzyl-3-[2-{(2-bromophenyl)amino)}-2-oxoethyl]-2-methyl-1H-benzo[d]imidazol-3-ium bromide] |  | 252 °C |  |  |  |
| Cc1n(Cc2ccccc2)c2ccccc2[n+]1CC(=O)Nc1ccc([N+](=O)[O-])cc1 (as salt: bromide) [Compound 10h, 1-Benzyl-2-methyl-3-[2-{(4-nitrophenyl)amino)}-2-oxoethyl]-1H-benzo[d]imidazol-3-ium bromide] |  | 222 to 224 °C |  |  |  |
| Cc1ccc(NC(=O)C[n+]2cn(Cc3ccccc3)c3ccccc32)cc1.[Br-] [Compound 9k, 1-Benzyl-3-{2-oxo-2-(p-tolylamino)ethyl}-1H-benzo[d]imidazol-3-ium bromide] | 201.13 ± 0.105 µM | 148 to 149 °C |  |  |  |
| O=C(C[n+]1cn(Cc2ccccc2)c2ccccc21)Nc1ccccc1Br.[Br-] [Compound 9c, 1-Benzyl-3-[2-{(2-bromophenyl)amino}-2-oxoethyl]-1H-benzo[d]imidazol-3-ium bromide] | 70.01 ± 0.037 µM | 192 to 194 °C |  |  |  |
| Cc1n(Cc2ccccc2)c2ccccc2[n+]1CC(=O)Nc1cccc(Br)c1.[Br-] [Compound 10d, 1-Benzyl-3-[2-{(3-bromophenyl)amino}-2-oxoethyl]-2-methyl-1H-benzo[d]imidazol-3-ium bromide] | 14 ± 0.013 µM | 242 °C | higher activity than acarbose |  | 4 fold |
| Cc1n(Cc2ccccc2)c2ccccc2[n+]1CC(=O)Nc1ccc(Br)cc1.[Br-] [Compound 10e, 1-Benzyl-3-[2-{(4-bromophenyl)amino}-2-oxoethyl]-2-methyl-1H-benzo[d]imidazol-3-ium bromide] | 30 ± 0.049 µM | 212 °C | higher activity than acarbose |  |  |
| O=C(C[n+]1cn(Cc2ccccc2)c2ccccc21)Nc1ccccc1[N+](=O)[O-].[Br-] [Compound 9f, 1-Benzyl-3-[2-{(2-nitrophenyl)amino}-2-oxoethyl]-1H-benzo[d]imidazol-3-ium bromide] | 241 ± 0.027 µM | 142 to 143 °C |  |  |  |
| Cc1n(Cc2ccccc2)c2ccccc2[n+]1CC(=O)Nc1ccccc1[N+](=O)[O-].[Br-] [Compound 10f, 1-Benzyl-2-methyl-3-[2-{(2-nitrophenyl)amino}-2-oxoethyl]-1H-benzo[d]imidazol-3-ium bromide] | 60 ± 0.025 µM |  | considerable decline in activity |  |  |
| O=C(C[n+]1cn(Cc2ccccc2)c2ccccc21)Nc1ccc([N+](=O)[O-])cc1.[Br-] [Compound 9h, 1-Benzyl-3-[2{(4-nitrophenyl)amino}-2-oxoethyl]-1H-benzo[d]imidazol-3-ium bromide] |  | 152 to 153 °C |  |  |  |
| COc1ccc(NC(=O)C[n+]2cn(Cc3ccccc3)c3ccccc32)cc1.[Br-] [Compound 9m, 1-Benzyl-3-[2-{(4-methoxyphenyl)amino}-2-oxoethyl]-1H-benzo[d]imidazol-3-ium bromide] | 279.28 ± 0.03 µM | 171 to 173 °C | lowest α-glucosidase inhibitory results in their respective series |  |  |
| Cc1ccccc1NC(=O)C[n+]1cn(Cc2ccccc2)c2ccccc21.[Br-] [Compound 9i, 1-Benzyl-3-{2-oxo-2-(o-tolylamino)ethyl}-1H-benzo[d]imidazol-3-ium bromide] | 259.86 ± 0.043 µM | 162 to 163 °C |  |  |  |
| Cc1n(Cc2ccccc2)c2ccccc2[n+]1CC(=O)Nc1ccc([N+](=O)[O-])cc1 [Compound 10h, 1-Benzyl-2-methyl-3-[2-{(4-nitrophenyl)amino)}-2-oxoethyl]-1H-benzo[d]imidazol-3-ium bromide] | 17 ± 0.067 µM |  | promising α-glucosidase inhibitory results |  |  |
| Cc1n(Cc2ccccc2)c2ccccc2[n+]1CC(=O)Nc1ccccc1Br [Compound 10c, 1-Benzyl-3-[2-{(2-bromophenyl)amino)}-2-oxoethyl]-2-methyl-1H-benzo[d]imidazol-3-ium bromide] | 46 ± 0.106 µM |  | higher activity than acarbose |  |  |
| COc1ccccc1NC(=O)C[n+]1cn(Cc2ccccc2)c2ccccc21.[Br-] [Compound 9l, 1-Benzyl-3-[2-{(2-methoxyphenyl)amino}-2-oxoethyl]-1H-benzo[d]imidazol-3-ium bromide] | 74.94 ± 0.028 µM | 188 to 189 °C |  |  |  |
| Cc1ccc(NC(=O)C[n+]2c(C)n(Cc3ccccc3)c3ccccc32)cc1.[Br-] [Compound 10k, 1-Benzyl-2-methyl-3-{2-oxo-2-(p-tolylamino)ethyl}-1H-benzo[d]imidazol-3-ium bromide] | 32.27 ± 0.05 µM | 220 to 221 °C | moderately active |  |  |
| Cc1ccccc1NC(=O)C[n+]1c(C)n(Cc2ccccc2)c2ccccc21.[Br-] [Compound 10i, 1-Benzyl-2-methyl-3-{2-oxo-2-(o-tolylamino)ethyl}-1H-benzo[d]imidazol-3-ium bromide] | 100 ± 0.048 µM | 168 to 170 °C | poor inhibitors; also recorded: lowest α-glucosidase inhibitory results in their respective series |  |  |
| O=C(C[n+]1cn(Cc2ccccc2)c2ccccc21)Nc1cccc(Cl)c1.[Br-] [Compound 9a, 1-Benzyl-3-[2-{(3-chlorophenyl)amino}-2-oxoethyl]-1H-benzo[d]imidazol-3-ium bromide] | 150.7 ± 0.045 µM | 205 to 207 °C |  |  |  |
